The target in experiment [1] is T1, 5-hydroxytryptamine receptor 2C (Homo sapiens, UniProt P28335).
T1 sequence (P28335 whole entry): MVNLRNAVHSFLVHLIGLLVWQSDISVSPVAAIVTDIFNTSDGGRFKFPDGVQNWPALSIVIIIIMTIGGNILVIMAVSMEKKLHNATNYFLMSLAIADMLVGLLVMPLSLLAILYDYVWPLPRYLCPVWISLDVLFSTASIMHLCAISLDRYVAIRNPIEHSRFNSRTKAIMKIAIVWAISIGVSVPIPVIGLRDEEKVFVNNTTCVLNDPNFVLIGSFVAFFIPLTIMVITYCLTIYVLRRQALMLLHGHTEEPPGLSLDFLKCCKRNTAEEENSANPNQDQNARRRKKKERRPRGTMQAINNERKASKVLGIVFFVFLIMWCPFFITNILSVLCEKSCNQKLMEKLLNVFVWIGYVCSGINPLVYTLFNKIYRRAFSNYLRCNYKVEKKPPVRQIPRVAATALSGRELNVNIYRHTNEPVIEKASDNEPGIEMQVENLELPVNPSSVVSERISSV
Briefly: Displacement of [H]-mesulergine from CHO cells expressing human 5-hydroxytryptamine 2C receptor. The class given is cell-based.

The target in a further experiment is D(2) dopamine receptor (Homo sapiens, UniProt P14416). As to the kind of experiment: biochemical.
The target in experiment [2] is 5-hydroxytryptamine receptor 2A (Homo sapiens, UniProt P28223). As to the kind of experiment: Displacement of [3H]ketanserin from CHO cells expressing human 5-hydroxytryptamine 2A receptor. The experiment is classed as cell-based. (In general: Displacement assays read how much labelled ligand stays bound in the presence of the test substance.)

Description for D(2) dopamine receptor: Displacement of [3H]spiperone from CHO cells expressing human Dopamine receptor D2.

On to `C[C@@H]1CCCCN1CCc1c(-c2ccccc2)[nH]c2ccccc12`, for which the Ki in experiment [1] came out at 36 nM; at D(2) dopamine receptor, 21 nM; in experiment [2], 0.18 nM.

Consider `c1ccc(-c2[nH]c3ccccc3c2CCN2CCCCC2)cc1`, for which the Ki is 268 nM in experiment [1], 896 nM at D(2) dopamine receptor and 2.6 nM in experiment [2].

On to `C[C@H]1CCCCN1CCc1c(-c2ccccc2)[nH]c2ccccc12`, for which the inhibition constant (Ki) in experiment [1] was found to be 230 nM; at D(2) dopamine receptor it was 290 nM; in experiment [2], 4 nM.

For the compound `CCN(CC)CCc1c(-c2ccccc2)[nH]c2ccccc12`, the Ki in experiment [1] was 160 nM; on D(2) dopamine receptor, above 1000 nM; in experiment [2], 2.8 nM.

In the case of `CCN(C)CCc1c(-c2cccc([N+](=O)[O-])c2)[nH]c2ccccc12`, the Ki in experiment [1] was 36 nM; on D(2) dopamine receptor, 39 nM; in experiment [2], 0.14 nM.

Take `c1ccc(-c2[nH]c3ccccc3c2CCN2CCC2)cc1`: the inhibition constant Ki in experiment [1] is above 1000 nM; on D(2) dopamine receptor it was above 1000 nM; in experiment [2], 44 nM.

Consider `CCN(C)CCc1c(-c2ccco2)[nH]c2ccccc12`, for which the Ki (in experiment [1]; on D(2) dopamine receptor; in experiment [2]) was above 1000 nM throughout.

Take `c1ccc(-c2[nH]c3ccccc3c2CCN2CCCC2)cc1`: the Ki in experiment [1] is 260 nM; at D(2) dopamine receptor, above 1000 nM; in experiment [2], 9 nM.

Turning to `CN(C)CCc1c(-c2ccccc2)[nH]c2ccccc12`, the inhibition constant Ki in experiment [1] is 180 nM; on D(2) dopamine receptor it was above 1000 nM; in experiment [2], 4.4 nM.

As usually defined, the Ki is a dissociation constant, usually derived from enzyme kinetics or from competition with a known ligand. Higher therefore signals lower affinity.

For the origin of these results see ChEMBL document CHEMBL1132836, “2-Aryl tryptamines: selective high-affinity antagonists for the h5-HT2A receptor” (Bioorg Med Chem Lett, 2000).
